Values quoted from earlier work, collected in PubChem BioAssay AID1259409 (Chemical Carcinogenesis Research Information System (CCRIS), 2018).

Tested on: rodent chemically induced tumor inhibition, incidence and multiplicity
Test: CCRIS tumor inhibitor studies
Details: Promoter: NONE USED

Structure (SMILES): CCCCCCCCCCCCCCCC(=O)OC/C=C(C)/C=C/C=C(C)/C=C/C1=C(C)CCCC1(C)C
- tumour outcome (control, treated, inhibition, significance) (Carcinogen: 3-METHYLCHOLANTHRENE, 56-49-5, Dose [Inhibitor]: 6 MG IN 0.1 ML ACETONE STARTING 2 WK AFTER CARCINOGEN TREATMENT AND APPLIED 2/WK DURING WK 3-5 OF THE STUDY AND THEN 1/W, Route [Inhibitor]: DERMAL, Species: MOUSE, Strain/Sex: SWISS/FEMALE, Target Tissue: Type of Lesion: SKIN: CARCINOMA, Dose [Carcinogen]: 0.1 ML OF 0.3% DISSOLVED IN ACETONE APPLIED 2/WK FIRST 5 WK THEN 1/WK FOR WK 6-9 FOLLOWED BY NO FURTHER TREATMENT THROUG): 5/19 (26%), 4/20 (20%), 23%, not calculated
- tumour outcome (control, treated, inhibition, significance) (Carcinogen: 3-METHYLCHOLANTHRENE, 56-49-5, Dose [Inhibitor]: 6 MG IN 0.1 ML ACETONE STARTING 2 WK AFTER CARCINOGEN TREATMENT AND APPLIED 2/WK DURING WK 3-5 OF THE STUDY AND THEN 1/W, Route [Inhibitor]: DERMAL, Species: MOUSE, Strain/Sex: SWISS/FEMALE, Target Tissue: Type of Lesion: SKIN: PAPILLOMA, Dose [Carcinogen]: 0.1 ML OF 0.3% DISSOLVED IN ACETONE APPLIED 2/WK FIRST 5 WK THEN 1/WK FOR WK 6-9 FOLLOWED BY NO FURTHER TREATMENT THROUG): 9/19 (47%), 3/20 (15%), 68%, not calculated
- tumour outcome (control, treated, inhibition, significance) (Carcinogen: 7,12-DIMETHYLBENZ[A]ANTHRACENE, 57-97-6, Dose [Inhibitor]: 0, 5000 IU APPLIED TO EACH CHEEK POUCH 2/WK BEGINNING 15 D POST LAST CARCINOGEN DOSE AND CONTINUING FOR 4.5 MO (STUDY DU, Route [Inhibitor]: DERMAL, Species: HAMSTER, Strain/Sex: SYRIAN/MALE, Target Tissue: Type of Lesion: CHEEK POUCH: TUMOR, Dose [Carcinogen]: 0.125 MG (0.25% LIQUID PARAFFIN SOLUTION) APPLIED TO EACH CHEEK POUCH 2/WK FOR 1 MO): 10/15 (67%), 0/20 (0%), 100%, not calculated
- tumour outcome (control, treated, inhibition, significance) (Carcinogen: 7,12-DIMETHYLBENZ[A]ANTHRACENE, 57-97-6, Dose [Inhibitor]: 0, 5000 IU APPLIED TO EACH CHEEK POUCH 2/WK BEGINNING 15 D POST LAST CARCINOGEN DOSE AND CONTINUING FOR 4.5 MO (STUDY DU, Route [Inhibitor]: DERMAL, Species: HAMSTER, Strain/Sex: SYRIAN/MALE, Target Tissue: Type of Lesion: STOMACH: TUMOR, Dose [Carcinogen]: 0.125 MG (0.25% LIQUID PARAFFIN SOLUTION) APPLIED TO EACH CHEEK POUCH 2/WK FOR 1 MO): 15/15 (100%), 0/20 (0%), 100%, not calculated
- tumour outcome (control, treated, inhibition, significance) (Carcinogen: 7,12-DIMETHYLBENZ[A]ANTHRACENE, 57-97-6, Dose [Inhibitor]: 20000 IU/KG IN DIET BEGINNING 6 WK PRIOR TO CARCINOGEN DOSE AND CONTINUING FOR 21-22 WK POST CARCINOGEN DOSE (STUDY DURA, Route [Inhibitor]: ORAL, Species: RAT, Strain/Sex: SPRAGUE-DAWLEY/MALE, Target Tissue: Type of Lesion: SALIVARY GLAND: TUMOR, Dose [Carcinogen]: 1 MG IN 20 µL OLIVE OIL INJECTED INTO SUBMANDIBULAR GLAND ONCE): 20/28 (71%), 16/29 (55%), 23%, not significant
- tumour outcome (control, treated, inhibition, significance) (Carcinogen: 7,12-DIMETHYLBENZ[A]ANTHRACENE, 57-97-6, Dose [Inhibitor]: 100000 IU/KG IN DIET BEGINNING 6 WK PRIOR TO CARCINOGEN DOSE AND CONTINUING FOR 21-22 WK POST CARCINOGEN DOSE (STUDY DUR, Route [Inhibitor]: ORAL, Species: RAT, Strain/Sex: SPRAGUE-DAWLEY/MALE, Target Tissue: Type of Lesion: SALIVARY GLAND: TUMOR, Dose [Carcinogen]: 1 MG IN 20 µL OLIVE OIL INJECTED INTO SUBMANDIBULAR GLAND ONCE): 20/28 (71%), 17/29 (59%), 17%, not significant
- tumour outcome (control, treated, inhibition, significance) (Carcinogen: BENZO[A]PYRENE, 50-32-8, Dose [Inhibitor]: 50, 200 IU/D IN DRINKING WATER FOR 61 WK BEGINNING POST CARCINOGEN TREATMENT (STUDY DURATION: 66 WK), Route [Inhibitor]: ORAL, Species: MOUSE, Strain/Sex: ICR/MALE, Target Tissue: Type of Lesion: FORESTOMACH: CARCINOMA, Dose [Carcinogen]: 20 MG IN 0.2 ML CORN OIL 2/WK FOR 5 WK): 8/28 (29%), 5/26 (19%), 34%, not significant
- tumour outcome (control, treated, inhibition, significance) (Carcinogen: BENZO[A]PYRENE, 50-32-8, Dose [Inhibitor]: 50, 200 IU/D IN DRINKING WATER FOR 61 WK BEGINNING POST CARCINOGEN TREATMENT (STUDY DURATION: 66 WK), Route [Inhibitor]: ORAL, Species: MOUSE, Strain/Sex: ICR/MALE, Target Tissue: Type of Lesion: FORESTOMACH: PAPILLOMA, Dose [Carcinogen]: 2 MG IN 0.2 ML CORN OIL 2/WK FOR 5 WK): 8/28 (29%), 2/27 (7%), 76%, p<0.05
- tumour outcome (control, treated, inhibition, significance) (Carcinogen: BENZO[A]PYRENE, 50-32-8, Dose [Inhibitor]: 50, 200 IU/D IN DRINKING WATER FOR 61 WK BEGINNING POST CARCINOGEN TREATMENT (STUDY DURATION: 66 WK), Route [Inhibitor]: ORAL, Species: MOUSE, Strain/Sex: ORAL, Target Tissue: Type of Lesion: FORESTOMACH: PAPILLOMA, Dose [Carcinogen]: 20 MG IN O.2 ML CORN OIL 2/WK FOR 5 WK): 26/28 (93%), 23/26 (88%), 5%, not significant
- tumour outcome (control, treated, inhibition, significance) (Carcinogen: BENZO[A]PYRENE, 50-32-8, Dose [Inhibitor]: 50, 200 IU/D IN DRINKING WATER FOR DURATION OF STUDY (STUDY DURATION: 66 WK), Route [Inhibitor]: ORAL, Species: MOUSE, Strain/Sex: ICR/MALE, Target Tissue: Type of Lesion: FORESTOMACH: PAPILLOMA, Dose [Carcinogen]: 2 MG IN 0.2 ML CORN OIL 2/WK FOR 5 WK): 8/28 (29%), 2/27 (7%), 76%, p,0.05
- tumour outcome (control, treated, inhibition, significance) (Carcinogen: BENZO[A]PYRENE, 50-32-8, Dose [Inhibitor]: 50, 200 IU/D IN DRINKING WATER FOR THE DURATION OF STUDY (STUDY DURATION: 66 WK), Route [Inhibitor]: ORAL, Species: MOUSE, Strain/Sex: ICR/MALE, Target Tissue: Type of Lesion: FORESTOMACH: CARCINOMA, Dose [Carcinogen]: 20 MG IN 0.2 ML CORN OIL 2/WK FOR 5 WK): 8/28 (29%), 7/27 (26%), 10%, not significant
- tumour outcome (control, treated, inhibition, significance) (Carcinogen: BENZO[A]PYRENE, 50-32-8, Dose [Inhibitor]: 50, 200 IU/D IN DRINKING WATER FOR THE DURATION OF STUDY (STUDY DURATION: 66 WK), Route [Inhibitor]: ORAL, Species: MOUSE, Strain/Sex: ICR/MALE, Target Tissue: Type of Lesion: FORESTOMACH: PAPILLOMA, Dose [Carcinogen]: 20 MG IN 0.2 ML CORN OIL 2/WK FOR 5 WK): 26/28 (93%), 20/27 (74%), 19%, not significant
- tumour outcome (control, treated, inhibition, significance) (Carcinogen: FIBERGLASS DUST, Dose [Inhibitor]: 50 MG/KG BW IN AQUASOL A PLACEBO, 1/3 D FOR 10 TREATMENTS STARTING 3 D POST CARCINOGEN TREATMENT (STUDY DURATION: 90 D), Route [Inhibitor]: INTRAPERITONEAL, Species: MOUSE, Strain/Sex: STRAIN-A/MALE, Target Tissue: Type of Lesion: LUNG: BRONCHIOGENIC OR SEPTAL CELL TUMOR, Dose [Carcinogen]: 300 MG IN 100 G OF STERILIZED PINE SAWDUST BEDDING CHANGED 1/3 D FOR 30 D STARTING 33 D PRIOR TO START OF AGENT TREATMEN): 6/12 (50%), 1/12 (8%), 84%, not calculated
- tumour outcome (control, treated, inhibition, significance) (Carcinogen: N-METHYL-N'-NITRO-N-NITROSOGUANIDINE, 70-25-7, Dose [Inhibitor]: 0, 150000 IU/KG DIET FOR 37 WK (STUDY DURATION: 38 WK), Route [Inhibitor]: ORAL, Species: RAT, Strain/Sex: WISTAR/MALE, Target Tissue: Type of Lesion: FORESTOMACH: BENIGN PAPILLOMA, Dose [Carcinogen]: 83 UG/ML IN DISTILLED DRINKING WATER FOR 37 WK): 15/51 (29%), 3/28 (11%), 62%, p<0.05
- tumour outcome (control, treated, inhibition, significance) (Carcinogen: N-METHYL-N'-NITRO-N-NITROSOGUANIDINE, 70-25-7, Dose [Inhibitor]: 0, 150000 IU/KG DIET FOR 37 WK (STUDY DURATION: 38 WK), Route [Inhibitor]: ORAL, Species: RAT, Strain/Sex: WISTAR/MALE, Target Tissue: Type of Lesion: GASTROINTESTINAL TRACT (UPPER): MALIGNANT NEOPLASMS, Dose [Carcinogen]: 83 UG/ML IN DISTILLED DRINKING WATER FOR 37 WK): 17/51 (33%), 18/28 (64%), -94%, p<0.05
- tumour outcome (control, treated, inhibition, significance) (Carcinogen: N-METHYL-N-NITROSOUREA, 684-93-5, Dose [Inhibitor]: 0.03 MMOL 3/WK STARTING 12 D THROUGH ABOUT 8 MO AFTER FIRST CARCINOGEN DOSE (STUDY DURATION: APPROXIMATELY 8 MO), Route [Inhibitor]: INTRARECTAL, Species: RAT, Strain/Sex: F344/MALE, Target Tissue: Type of Lesion: COLON: ADENOCARCINOMA, Dose [Carcinogen]: 2.5 MG 1/WK FOR 2 WK): 3/39 (8%), 4/39 (10%), -25%, not significant
- tumour outcome (control, treated, inhibition, significance) (Carcinogen: N-METHYL-N-NITROSOUREA, 684-93-5, Dose [Inhibitor]: 0.03 MMOL 3/WK STARTING 12 D THROUGH ABOUT 8 MO AFTER FIRST CARCINOGEN DOSE (STUDY DURATION: APPROXIMATELY 8 MO), Route [Inhibitor]: INTRARECTAL, Species: RAT, Strain/Sex: F344/MALE, Target Tissue: Type of Lesion: COLON: ADENOMA, Dose [Carcinogen]: 2.5 MG 1/WK FOR 2 WK): 11/39 (28%), 24/39 (62%), -121%, p<0.05
- tumour outcome (control, treated, inhibition, significance) (Carcinogen: N-METHYL-N-NITROSOUREA, 684-93-5, Dose [Inhibitor]: 0.03 MMOL 3/WK STARTING 15 D PRIOR TO THROUGH ABOUT 8 MO AFTER FIRST CARCINOGEN DOSE (STUDY DURATION: APPROXIMATELY 8 MO, Route [Inhibitor]: INTRARECTAL, Species: RAT, Strain/Sex: F344/MALE, Target Tissue: Type of Lesion: COLON: ADENOCARCINOMA, Dose [Carcinogen]: 2.5 MG 1/WK FOR 2 WK): 3/39 (8%), 10/38 (26%), -225%, not significant
- tumour outcome (control, treated, inhibition, significance) (Carcinogen: N-METHYL-N-NITROSOUREA, 684-93-5, Dose [Inhibitor]: 0.03 MMOL 3/WK STARTING 15 D PRIOR TO THROUGH ABOUT 8 MO AFTER FIRST CARCINOGEN DOSE (STUDY DURATION: APPROXIMATELY 8 MO, Route [Inhibitor]: INTRARECTAL, Species: RAT, Strain/Sex: F344/MALE, Target Tissue: Type of Lesion: COLON: ADENOMA, Dose [Carcinogen]: 2.5 MG 1/WK FOR 2 WK): 11/39 (28%), 24/38 (63%), -125%, p<0.05
